Source: patent US7851487B2, “Use of tetrahydropyridines in the treatment of central nervous system disorders” (The Research Foundation of State University of New York, priority 2006, dated 2010)

Tests used:
[1] = biological target: T1, Serotonin 5HT2C (Homo sapiens, UniProt P28335); assay: Radioligand binding, Serotonin 5HT2C ([3H]Mesulergine)
T1 construct: host or cells: CHO-K1 cells
T1 sequence (P28335 33-458): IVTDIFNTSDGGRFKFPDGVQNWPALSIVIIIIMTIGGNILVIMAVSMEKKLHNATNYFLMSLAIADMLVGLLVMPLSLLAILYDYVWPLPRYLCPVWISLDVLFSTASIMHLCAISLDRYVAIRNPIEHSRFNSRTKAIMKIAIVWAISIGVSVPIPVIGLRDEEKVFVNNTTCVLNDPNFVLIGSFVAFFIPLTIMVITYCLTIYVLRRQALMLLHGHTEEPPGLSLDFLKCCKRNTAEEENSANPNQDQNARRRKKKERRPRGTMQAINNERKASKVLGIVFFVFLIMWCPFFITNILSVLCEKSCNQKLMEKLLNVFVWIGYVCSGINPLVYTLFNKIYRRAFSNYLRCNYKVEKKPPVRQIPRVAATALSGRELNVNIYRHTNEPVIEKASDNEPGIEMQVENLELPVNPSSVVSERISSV
Protocol: (§1) The assays utilized human neuroreceptors and were performed under the experimental parameters set forth in Table 2 using standard techniques.
(§2) For Table 3, IC50 values were determined by non-linear, least squares regression analysis using Data Analysis Toolbox™ (MDL Information Systems, San Leandro, Calif., USA). Inhibition constants (KI) were calculated using the equation of Cheng and Prusoff (Cheng, Y., et al. Biochem. Pharmacol. 22:3099-3108, 1973) using the observed IC50 of the tested compound, the concentration of radioligand employed in the assay, and the values for the KD of the ligand. The Hill coefficient (nH), defining the slope of the competitive binding curve, was calculated using the Data Analysis Toolbox™. Biochemical assay results are presented as the percent inhibition of specific binding or activity unless indicated otherwise. The experiments summarized in Table 3 utilized human dopamine D1, D2 s, D21, D3, D4.2, D4.4, serotonin 5HT1A, 5HT2A, 5HT2C, 5HT6, 5HT7, dopamine transporter (DAT), serotonin transporter (SERT) and the norepinephrine transporter (NET), as indicated in Table 3.

[2] = biological target: T2, Serotonin 5HT6 (Homo sapiens, UniProt P50406); assay: Radioligand binding, Serotonin 5HT6 ([3H]LSD)
T2 construct: host or cells: HeLa cells
T2 sequence (P50406 whole entry): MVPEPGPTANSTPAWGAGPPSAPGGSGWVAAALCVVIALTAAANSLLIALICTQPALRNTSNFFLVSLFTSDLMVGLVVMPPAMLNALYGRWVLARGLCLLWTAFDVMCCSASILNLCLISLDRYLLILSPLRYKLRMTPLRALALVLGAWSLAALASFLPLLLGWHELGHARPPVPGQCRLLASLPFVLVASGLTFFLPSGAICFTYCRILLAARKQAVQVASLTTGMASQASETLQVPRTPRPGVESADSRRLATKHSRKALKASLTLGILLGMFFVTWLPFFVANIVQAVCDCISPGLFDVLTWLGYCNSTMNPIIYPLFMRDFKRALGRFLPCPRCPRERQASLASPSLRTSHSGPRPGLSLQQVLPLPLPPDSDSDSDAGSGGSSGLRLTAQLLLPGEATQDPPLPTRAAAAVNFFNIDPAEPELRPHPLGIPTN
Protocol: as §1, §2

[3] = biological target: T3, Serotonin 5HT1A (Homo sapiens, UniProt P08908); assay: Radioligand binding, Serotonin 5HT1A; conditions: read-out: Percentage Inhibition
T3 sequence (P08908 1-422): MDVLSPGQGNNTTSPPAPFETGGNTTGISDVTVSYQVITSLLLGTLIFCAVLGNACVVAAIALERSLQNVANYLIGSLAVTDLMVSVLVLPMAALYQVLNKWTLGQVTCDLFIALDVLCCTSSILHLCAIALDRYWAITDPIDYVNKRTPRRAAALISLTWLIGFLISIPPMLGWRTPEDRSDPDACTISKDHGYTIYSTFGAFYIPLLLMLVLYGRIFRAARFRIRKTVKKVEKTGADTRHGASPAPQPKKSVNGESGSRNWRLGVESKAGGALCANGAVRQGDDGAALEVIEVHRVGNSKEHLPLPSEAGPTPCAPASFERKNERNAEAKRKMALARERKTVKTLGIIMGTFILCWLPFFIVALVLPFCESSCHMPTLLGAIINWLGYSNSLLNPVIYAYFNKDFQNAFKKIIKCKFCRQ
Protocol: as §1, §2

[4] = system: ckr mouse; assay: Motor activity in chakragati (ckr) mice; format: in vivo; conditions: 10 mg/kg intraperitoneal, 20 minutes after injection, monitored 15 minutes
Protocol: The mouse also presents lateral ventricular enlargement, which may mirror neuropathological observations in shizophrenia. […] We have further validated this model by testing risperidone, clozapine, haloperidol and pimozide in the ckr mouse. The behavioral output was assayed by measuring the rate of hyperactivity and circling after administration.
A stock solution of compound 2 was dissolved in DMSO, and then diluted to 10 mg/10 ml with distilled water such that the final concentration of DMSO was 0.5%. Each animal received 10 mg/kg of the test drug in a volume of 0.1 ml per 10 g. Additional drugs were tested in parallel in a similar manner.
Twenty ckr mice (male and female, 3 months old) were randomly assigned to receive the test drug (compound 2) or 0.5% DMSO vehicle. The drug was tested in 5 mice. Each treatment was separated by a minimum washout period of 3 days. On the day of testing, mice were brought into the behavioral test room and allowed to acclimatize for at least 1 hour. They then received intraperitoneal injections of the 0.1 ml/10 g (10 mg/kg) of the test drug solution or vehicle. They were returned to their cage and 20 minutes later they were placed in a 190 mm diameter, 300 mm deep circular recording chamber. […] The mice were monitored with an overhead video camera for 15 minutes. […] The total distance moved, the velocity of movement, and the time spent moving were calculated. […]

COC(=O)[C@@H](c1ccc(-c2ccccc2)cc1)[C@H]1C=CCCN1 [Compound 2]
IC50 [1]: 13.4 µM
Ki [1]: 7.03 µM
inhibition at 10 µM ([1]; Serotonin 5HT2C, 10 μM, read-out: Percentage Inhibition): 52%
inhibition at 30 µM ([1]; Serotonin 5HT2C, 30 μM, read-out: Percentage Inhibition): 70%
nH ([1]; Serotonin 5HT2C, Hill coefficient): 1.12
IC50 [2]: 94.5 µM
Ki [2]: 43.9 µM
inhibition at 100 µM ([2]; Serotonin 5HT6, 100 μM, read-out: Percentage Inhibition): 53%
nH ([2]; Serotonin 5HT6, Hill coefficient): 1.12
inhibition at 10 µM [3]: 13%
time spent moving [4]: significantly decreased the time spent moving
velocity of movement [4]: trend towards decreased velocity
